Assay results: patent US20260125382A1, “COMPOUNDS FOR INHIBITING OR DEGRADING CDK2 AND/OR CDK9 AND MEDICINAL USE THEREOF” (KOREA RESEARCH INSTITUTE OF CHEMICAL TECHNOLOGY, priority 2022, published 2026)

What was measured:
CDK2 = molecular target: T1, CDK2 (Homo sapiens, UniProt P24941); experiment: CDK protein degradation activity (Western blotting), CDK2; assay type: cell-based; details: MDA-MB-231 cells, 16 hours, Western blot
T1 construct: endogenous in cells; host or cells: MDA-MB-231
How it was run: (§1)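 MDA-MB-231; cmpd 100 nM / 1 μM / 10 μM final vs DMSO, 16 h. Triton X-100 lysates (pH 7.5, phosphatase/protease inhibitors) → SDS-PAGE → Western blot, anti-CDK2, anti-CDK9, tubulin loading control; densitometry.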

CDK9 = molecular target: T2, CDK9 (Homo sapiens, UniProt P50750); experiment: CDK protein degradation activity (Western blotting), CDK9; assay type: cell-based; details: MDA-MB-231 cells, 16 hours, Western blot
T2 construct: endogenous in cells; host or cells: MDA-MB-231
How it was run: as §1

T2 sequence (P50750 whole entry): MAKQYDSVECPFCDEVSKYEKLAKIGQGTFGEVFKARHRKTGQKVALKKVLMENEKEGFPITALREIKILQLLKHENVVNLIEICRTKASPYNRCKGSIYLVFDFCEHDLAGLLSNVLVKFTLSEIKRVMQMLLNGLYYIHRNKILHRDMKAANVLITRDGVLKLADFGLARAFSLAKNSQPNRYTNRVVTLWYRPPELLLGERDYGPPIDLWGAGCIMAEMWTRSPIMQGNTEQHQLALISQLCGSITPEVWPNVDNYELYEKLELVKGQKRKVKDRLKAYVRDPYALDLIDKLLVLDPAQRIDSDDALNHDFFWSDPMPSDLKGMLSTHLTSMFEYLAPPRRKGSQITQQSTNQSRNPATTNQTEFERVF

O=C1CCC(N2C(=O)c3cccc(OCC(=O)N4CCN(CCCN5CCN(c6ccc(Nc7ncnc8c7ncn8[C@H]7C[C@@H](NC(=O)Cc8ccccc8)C7)cc6)CC5)CC4)c3C2=O)C(=O)N1 (stereo partly drawn) [Compound 232, N-((1s,3s)-3-(6-((4-(4-(3-(4-(2-((2-(2,6-dioxopiperidin-3-yl)-1,3-dioxoisoindolin-4-yl)oxy)acetyl)piperazin-1-yl)propyl)piperazin-1-yl)phenyl)amino)-9H-purin-9-yl)cyclobutyl)-2-phenylacetamide]
Enzyme degradation CDK2 (% remaining) @ 0.1 μM (CDK2): 60% | Enzyme degradation CDK2 (% remaining) @ 1 μM (CDK2): 20% | Enzyme degradation CDK2 (% remaining) @ 10 μM (CDK2): 20% | Enzyme degradation CDK9 (% remaining) @ 0.1 μM (CDK9): 90% | Enzyme degradation CDK9 (% remaining) @ 1 μM (CDK9): 10% | Enzyme degradation CDK9 (% remaining) @ 10 μM (CDK9): 0%

O=C1CC[C@H](N2C(=O)c3ccc(NCC(=O)N4CCN(CCCN5CCN(c6ccc(Nc7ncnc8c7ncn8C7CC(NC(=O)Cc8ccccc8)C7)cc6)CC5)CC4)cc3C2=O)C(=O)N1 (stereo partly drawn) [Compound 233, N-((1s,3s)-3-(6-((4-(4-(3-(4-((2-(2,6-dioxopiperidin-3-yl)-1,3-dioxoisoindolin-5-yl)glycyl)piperazin-1-yl)propyl)piperazin-1-yl)phenyl)amino)-9H-purin-9-yl)cyclobutyl)-2-phenylacetamide]
Enzyme degradation CDK2 (% remaining) @ 0.1 μM (CDK2): 80% | Enzyme degradation CDK2 (% remaining) @ 1 μM (CDK2): 80% | Enzyme degradation CDK2 (% remaining) @ 10 μM (CDK2): 70% | Enzyme degradation CDK9 (% remaining) @ 0.1 μM (CDK9): 40% | Enzyme degradation CDK9 (% remaining) @ 1 μM (CDK9): 0% | Enzyme degradation CDK9 (% remaining) @ 10 μM (CDK9): 0%

O=C1CC[C@H](N2C(=O)c3ccc(OCC(=O)N4CCN(CCCN5CCN(c6ccc(Nc7ncnc8c7ncn8[C@H]7C[C@@H](NC(=O)Cc8ccccc8)C7)cc6)CC5)CC4)cc3C2=O)C(=O)N1 [Compound 234, N-((1s,3s)-3-(6-((4-(4-(3-(4-(2-((2-(2,6-dioxopiperidin-3-yl)-1,3-dioxoisoindolin-5-yl)oxy)acetyl)piperazin-1-yl)propyl)piperazin-1-yl)phenyl)amino)-9H-purin-9-yl)cyclobutyl)-2-phenylacetamide]
Enzyme degradation CDK2 (% remaining) @ 0.1 μM (CDK2): 100% | Enzyme degradation CDK2 (% remaining) @ 1 μM (CDK2): 80% | Enzyme degradation CDK2 (% remaining) @ 10 μM (CDK2): 70% | Enzyme degradation CDK9 (% remaining) @ 0.1 μM (CDK9): 60% | Enzyme degradation CDK9 (% remaining) @ 1 μM (CDK9): 40% | Enzyme degradation CDK9 (% remaining) @ 10 μM (CDK9): 0%

O=C1CC[C@@H](c2ccc(OCC(=O)N3CCN(CCCN4CCN(c5ccc(Nc6ncnc7c6ncn7C6CC(NC(=O)Cc7ccccc7)C6)cc5)CC4)CC3)cc2)C(=O)N1 (stereo partly drawn) [Compound 236, N-((1s,3s)-3-(6-((4-(4-(3-(4-(2-(4-(2,6-dioxopiperidin-3-yl)phenoxy)acetyl)piperazin-1-yl)propyl)piperazin-1-yl)phenyl)amino)-9H-purin-9-yl)cyclobutyl)-2-phenylacetamide]
Enzyme degradation CDK2 (% remaining) @ 0.1 μM (CDK2): 50/50/50% | Enzyme degradation CDK2 (% remaining) @ 1 μM (CDK2): 50/50/50% | Enzyme degradation CDK2 (% remaining) @ 10 μM (CDK2): 50/50/50% | Enzyme degradation CDK9 (% remaining) @ 0.1 μM (CDK9): 20% | Enzyme degradation CDK9 (% remaining) @ 1 μM (CDK9): 0% | Enzyme degradation CDK9 (% remaining) @ 10 μM (CDK9): 0%

O=C1CC[C@@H](c2cccc(OCC(=O)N3CCN(CCCN4CCN(c5ccc(Nc6ncnc7c6ncn7C6CC(NC(=O)Cc7ccccc7)C6)cc5)CC4)CC3)c2)C(=O)N1 (stereo partly drawn) [Compound 237, N-((1s,3s)-3-(6-((4-(4-(3-(4-(2-(3-(2,6-dioxopiperidin-3-yl)phenoxy)acetyl)piperazin-1-yl)propyl)piperazin-1-yl)phenyl)amino)-9H-purin-9-yl)cyclobutyl)-2-phenylacetamide]
Enzyme degradation CDK2 (% remaining) @ 0.1 μM (CDK2): 10% | Enzyme degradation CDK2 (% remaining) @ 1 μM (CDK2): 0% | Enzyme degradation CDK2 (% remaining) @ 10 μM (CDK2): 0% | Enzyme degradation CDK9 (% remaining) @ 0.1 μM (CDK9): 20% | Enzyme degradation CDK9 (% remaining) @ 1 μM (CDK9): 0% | Enzyme degradation CDK9 (% remaining) @ 10 μM (CDK9): 0%

O=C1CC[C@H](N2C(=O)c3cccc(N4CCN(CCCN5CCN(c6ccc(Nc7ncnc8c7ncn8C7CC(NC(=O)Cc8ccccc8)C7)cc6)CC5)CC4)c3C2=O)C(=O)N1 (stereo partly drawn) [Compound 238, N-((1s,3s)-3-(6-((4-(4-(3-(4-(2-(2,6-dioxopiperidin-3-yl)-1,3-dioxoisoindolin-4-yl)piperazin-1-yl)propyl)piperazin-1-yl)phenyl)amino)-9H-purin-9-yl)cyclobutyl)-2-phenylacetamide]
Enzyme degradation CDK2 (% remaining) @ 0.1 μM (CDK2): 100% | Enzyme degradation CDK2 (% remaining) @ 1 μM (CDK2): 80% | Enzyme degradation CDK2 (% remaining) @ 10 μM (CDK2): 50% | Enzyme degradation CDK9 (% remaining) @ 0.1 μM (CDK9): 70% | Enzyme degradation CDK9 (% remaining) @ 1 μM (CDK9): 20% | Enzyme degradation CDK9 (% remaining) @ 10 μM (CDK9): 0%

O=C1CCC(N2C(=O)c3ccc(N4CCN(CCCN5CCN(c6ccc(Nc7ncnc8c7ncn8[C@H]7C[C@@H](NC(=O)Cc8ccccc8)C7)cc6)CC5)CC4)cc3C2=O)C(=O)N1 (stereo partly drawn) [Compound 239, N-((1s,3s)-3-(6-((4-(4-(3-(4-(2-(2,6-dioxopiperidin-3-yl)-1,3-dioxoisoindolin-5-yl)piperazin-1-yl)propyl)piperazin-1-yl)phenyl)amino)-9H-purin-9-yl)cyclobutyl)-2-phenylacetamide]
Enzyme degradation CDK2 (% remaining) @ 0.1 μM (CDK2): 100% | Enzyme degradation CDK2 (% remaining) @ 1 μM (CDK2): 20% | Enzyme degradation CDK2 (% remaining) @ 10 μM (CDK2): 20% | Enzyme degradation CDK9 (% remaining) @ 0.1 μM (CDK9): 70% | Enzyme degradation CDK9 (% remaining) @ 1 μM (CDK9): 0% | Enzyme degradation CDK9 (% remaining) @ 10 μM (CDK9): 0%

O=C1CC[C@H](N2C(=O)c3cc(F)c(N4CCC5(CC4)CC(N4CCN(c6ccc(Nc7ncnc8c7ncn8[C@H]7C[C@@H](NC(=O)Cc8ccccc8)C7)cc6)CC4)C5)cc3C2=O)C(=O)N1 [Compound 244, N-((1s,3s)-3-(6-((4-(4-(7-(2-(2,6-dioxopiperidin-3-yl)-6-fluoro-1,3-dioxoisoindolin-5-yl)-7-azaspiro[3.5]nonan-2-yl)piperazin-1-yl)phenyl)amino)-9H-purin-9-yl)cyclobutyl)-2-phenylacetamide]
Enzyme degradation CDK2 (% remaining) @ 0.1 μM (CDK2): 70% | Enzyme degradation CDK2 (% remaining) @ 1 μM (CDK2): 50% | Enzyme degradation CDK2 (% remaining) @ 10 μM (CDK2): 40% | Enzyme degradation CDK9 (% remaining) @ 0.1 μM (CDK9): 60% | Enzyme degradation CDK9 (% remaining) @ 1 μM (CDK9): 0% | Enzyme degradation CDK9 (% remaining) @ 10 μM (CDK9): 0%

O=C1CC[C@H](N2C(=O)c3cccc(OCC(=O)N4CCC(OCCN5CCN(c6ccc(Nc7ncnc8c7ncn8C7CC(NC(=O)Cc8ccccc8)C7)cc6)CC5)CC4)c3C2=O)C(=O)N1 (stereo partly drawn) [Compound 246, N-((1s,3s)-3-(6-((4-(4-(2-((1-(2-((2-(2,6-dioxopiperidin-3-yl)-1,3-dioxoisoindolin-4-yl)oxy)acetyl)piperidin-4-yl)oxy)ethyl)piperazin-1-yl)phenyl)amino)-9H-purin-9-yl)cyclobutyl)-2-phenylacetamide]
Enzyme degradation CDK2 (% remaining) @ 0.1 μM (CDK2): 60% | Enzyme degradation CDK2 (% remaining) @ 1 μM (CDK2): 40% | Enzyme degradation CDK2 (% remaining) @ 10 μM (CDK2): 40% | Enzyme degradation CDK9 (% remaining) @ 0.1 μM (CDK9): 80% | Enzyme degradation CDK9 (% remaining) @ 1 μM (CDK9): 30% | Enzyme degradation CDK9 (% remaining) @ 10 μM (CDK9): 0%
